Twelve compounds from PMC4821856, “Novel Anti-Campylobacter Compounds Identified Using High Throughput Screening of a Pre-selected Enriched Small Molecules Library” (Frontiers in Microbiology, 2016) can be followed below.

Data set [1] can be described thus: Cytotoxicity by LDH release. Type of data set: cell-based, human. Conditions: human, Caco-2 cells, 24 h, LDH release, no FBS. As for the experimental part: (§1) We evaluated 12 selected compounds for cytotoxicity to Caco-2 (human colonic carcinoma) cells as described previously (Xu et al., [2015]). The Caco-2 cells were obtained from the American Type Culture Collection (ATCC Rockville, MD) and maintained in minimal essential medium (MEM) supplemented with 20% fetal bovine serum (FBS), 1% non-essential amino acid (NEAA; Life Technologies, NY) and with 1 mM sodium pyruvate at 37°C in a humidified 5% CO2 incubator. A 96-well tissue culture plate was seeded with approximately 1.4 × 10^5 cells per well and incubated for 24 h at 37°C in an incubator until a confluent monolayer formed. It was necessary to assess the dose dependent cytotoxicity effect of DMSO as compounds were diluted in DMSO therefore, we determined the cytotoxic effect of varying concentrations of the DMSO vehicle control (1, 2, and 5%) in Caco-2 cells containing 150 μL of media (without FBS) incubated at 24 h. There was no significant difference among the varying DMSO concentrations and their cytotoxicity values. Therefore, we used 1% DMSO in duplicate wells along with other appropriate controls for cytotoxicity experiment.
(§2) It is likely that the compounds can bind to serum proteins (FBS) present in the media and thus influence the true cytotoxic effect of the compounds; therefore, we performed the cytotoxicity assay in absence of FBS. The cytotoxicity assay was performed according to manufacturer instructions (Pierce TM; Thermo Scientific, IL) and the percentage of cytotoxicity was calculated by measuring the release of lactate dehydrogenase (LDH) enzyme from the treated cells. Briefly, ~1.4 × 10^5 cells were grown in a 96-well tissue culture plate containing 150 μL of growth medium. After three washes with medium without supplementation, 1 μL (200 μM) of compound was added to duplicate wells and incubated for 24 h at 37°C in a humidified, 5% CO2 incubator. Subsequently, 50 μL of supernatants were collected for measuring LDH release and the degree of cytotoxicity was determined according to the manufacturer instructions.
(§3) Three independent experiments were conducted in duplicate samples in each experiment and the average cytotoxicity values were plotted.
A general note: LDH in the medium is a marker of cell lysis.

Data set [2] deals with Caco-2 (human colonic carcinoma) cells. The experiment in a line: Cytotoxicity by LDH release. Type of data set: cell-based. Conditions: Caco-2 cells, 200 μM; for Cytotoxicity (%): 24 h, LDH release, no FBS. Here is the method:
as §1, §2, §3

Data set [3] concerns C. jejuni 81-176 in Caco-2 cells. The experiment in a line: Intracellular survival / in vitro clearance of C. jejuni in infected Caco-2 cells. Conditions: for minimal effective concentration: Campylobacter jejuni, C. jejuni 81–176 infected Caco-2 cells, compounds at 200, 100, 50, 25 μM for 24 h, read-out: In vitro Concentration (in vitro clearance ability); for Intracellular Campylobacter load (below detection limit): 50 μM, 24 h. Type of data set: cell-based, Campylobacter jejuni. As for the experimental part: To test the effect of selected compounds on C. jejuni in vitro clearance, Caco-2 cells were infected with C. jejuni 81-176 strain and a 96 well intracellular survival assay was performed as described previously (Malde et al., [2014]; Pina-Mimbela et al., [2015]). Briefly, a mid-log phase C. jejuni 81–176 culture was pelleted by centrifuging at 9500 × g for 10 min and washed three times with Dulbecco Phosphate Buffer Saline (DPBS, Gibco) containing 1% (v/v) FBS and adjusted to the desired OD600. Approximately 1.4 × 10^5 Caco-2 cells/well were seeded in 100 μL of media containing varying concentration of compounds into each well of a 96 well plate and subsequently infected with C. jejuni at multiplicity of infection (MOI) 100 in duplicate wells. To determine clearance, Caco-2 cells were incubated with bacteria for 3 h and treated with gentamicin (150 μg/mL) and incubated for additional 2 h. Cells were washed three times with DPBS with no calcium or magnesium and incubated with 1 μL of diluted compounds (200, 100, 50, and 25 μM) for 24 h. Infected cells were washed twice with MEM, lysed with 0.1% (v/v) Triton-X 100. Subsequently, 100 μL of an aliquot from each well was 10-fold serially diluted in MEM and plated on MH agar in duplicate to determine CFUs. The appropriate controls included; (i) infected Caco-2 cell treated with kanamycin or chloramphenicol, (ii) infected Caco-2 cells treated with 1 μL of 100% Trition-X, (iii) infected Caco-2 treated with 1 μL of 100% DMSO. Two independent experiments were carried with duplicate treatments in each experiment and the average CFU value was used to plot the graph.
The in vitro clearance ability and cytotoxicity of compounds were analyzed using one-way analysis of variance with mean separation by a least significant difference test at 5% level of significance in GraphPad Prism version 6 software.

Each structure is given as a SMILES string. Bounds are passed on as bounds.

Regarding `O=S(=O)(Nc1cccc(C(F)(F)F)c1)c1ccc(Br)cc1` [Comp 1], in data set [1], the cytotoxicity at 24 h, 200 µM stood at 30.3%. In addition, the “Relative cytotoxicity among the 12 compounds” value in data set [2] is listed as “highest cytotoxicity”. For the same compound, the minimal effective concentration in data set [3] was 200 µM.

In data set [1], `COc1ccc(CN2CCN(c3ccc(F)cc3)CC2)cc1C` [Comp 2] returned a cytotoxicity at 24 h, 200 µM of at most 10%. Further, the “Cytotoxicity (%)” value in data set [2] was 6.9%.

`CN(C)c1ccc(CN2CCN(c3ccccc3Cl)CC2)cc1` [Comp 3] showed a cytotoxicity at 24 h, 200 µM in data set [1] of 11.3%.

Consider `Clc1ccc(N2CCN(Cc3ccsc3)CC2)cc1` [Comp 4], for which the “Cytotoxicity (%)” value in data set [2] is reported as 4.6%. Also, the minimal effective concentration in data set [3] was over 200 µM.

In the case of `Cc1ccc(N2CCN(C/C=C/c3ccccc3)CC2)cc1` [Comp 5], in data set [1], the cytotoxicity at 24 h, 200 µM is at most 10%. In addition, the “Cytotoxicity (%)” value in data set [2] is 6.5%. The minimal effective concentration in data set [3] was over 200 µM.

Take `O=c1c(Cl)c(Cl)cnn1-c1ccccc1Cl` [Comp 7]: the cytotoxicity at 24 h, 200 µM in data set [1] worked out at 28%. For the same compound, the “Intracellular Campylobacter clearing ability” value in data set [3] (25 μM (eight-fold dilution)) was “complete intracellular Campylobacter clearing ability”. Besides, in data set [3], the “Intracellular Campylobacter load (below detection limit)” value is at most 10 bacteria/mL and the minimal effective concentration was 25 µM.

As to `Cc1c(C(C)NCc2cccc(OC3CCCC3)c2)cnn1-c1ccccc1` (stereo not shown) [Comp 10], the cytotoxicity at 24 h, 200 µM in data set [1] stood at 27.8%. In addition, in data set [3], the “Intracellular Campylobacter load (below detection limit)” value was at most 10 bacteria/mL and the minimal effective concentration turned out to be 50 µM.

For `COc1ccc(CNCc2ccc(Cl)s2)cc1OCC(O)CN1CCCC1` (stereo not shown) [Comp 12], in data set [2], the “Relative cytotoxicity among the 12 compounds” value is “least cytotoxic” and the “Cytotoxicity (%)” value came to 0%. Also, the minimal effective concentration in data set [3] worked out at 100 µM.

In the case of `CN(Cc1cccc2cnccc12)CC1CCCN(CCc2ccc(F)cc2)C1` (stereo not shown) [Comp 13], in data set [2], the “Relative cytotoxicity among the 12 compounds” value was “least cytotoxic” and the “Cytotoxicity (%)” value came out at 0%. Besides, the minimal effective concentration in data set [3] is over 200 µM. The “Intracellular C. jejuni clearance (in vitro effect)” value in data set [3] (infected Caco-2 cells, overall) is on record as “lacked in vitro effect”.

In data set [1], `CN(CC(O)COc1ccccc1CNC1(c2ccccc2)CC1)C1CCCCC1` (stereo not shown) [Comp 17] returned a cytotoxicity at 24 h, 200 µM of 16.6%. The minimal effective concentration in data set [3] was over 200 µM.

In data set [1], `CN(Cc1ccccc1)CC1CCCN(CCc2ccc(F)cc2)C1` (stereo not shown) [Comp 18] showed a cytotoxicity at 24 h, 200 µM of 8.8%. For the same compound, the minimal effective concentration in data set [3] stood at 100 µM.

In data set [1], `CC(=O)Nc1ccc(CN(C)CC2CCCN(CCc3cccc(C(F)(F)F)c3)C2)cc1` (stereo not shown) [Comp 22] had a cytotoxicity at 24 h, 200 µM of 12.1%. Also, the minimal effective concentration in data set [3] is 100 µM.
